What was measured:
human orexin-2 receptor = target: T1, human orexin-2 receptor (Homo sapiens, UniProt O43614); assay: radioligand binding assay, OX2 receptor (hOX2 Bind hKi); conditions: membranes from CHO cells expressing the OX2 receptor
T1 construct: expressed in transfected cells; host or cells: CHO cells (membranes)
T1 sequence (O43614 1-444): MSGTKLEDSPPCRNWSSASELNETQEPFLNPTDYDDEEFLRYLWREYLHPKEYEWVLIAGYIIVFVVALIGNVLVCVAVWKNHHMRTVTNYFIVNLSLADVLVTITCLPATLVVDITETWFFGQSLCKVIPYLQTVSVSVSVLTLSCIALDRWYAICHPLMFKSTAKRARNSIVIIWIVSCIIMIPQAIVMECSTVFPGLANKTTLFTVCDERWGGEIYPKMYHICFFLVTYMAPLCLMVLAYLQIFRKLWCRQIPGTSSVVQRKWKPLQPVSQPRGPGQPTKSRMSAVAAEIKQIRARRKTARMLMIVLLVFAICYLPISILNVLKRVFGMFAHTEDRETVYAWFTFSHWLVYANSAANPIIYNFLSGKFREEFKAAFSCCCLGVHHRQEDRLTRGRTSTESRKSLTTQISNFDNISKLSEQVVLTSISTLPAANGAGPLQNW
Method: The utility of the compounds in accordance with the present invention as orexin receptor OX1R and/or OX2R antagonists may be readily determined without undue experimentation by methodology well known in the art, including the “FLIPR Ca^2+ Flux Assay” (Okumura et al., Biochem. Biophys. Res. Comm. 280:976-981, 2001). In a typical experiment the OX1 and OX2 receptor antagonistic activity of the compounds of the present invention was determined in accordance with the following experimental method. For intracellular calcium measurements, Chinese hamster ovary (CHO) cells expressing the rat orexin-1 receptor or the human orexin-2 receptor, are grown in Iscove's modified DMEM containing 2 mM L-glutamine, […], 1% hypoxanthine-thymidine supplement, 100 U/ml penicillin, 100 μg/ml streptomycin and 10% heat-inactivated fetal calf serum (FCS). The cells are seeded at 20,000 cells/well into Becton-Dickinson black 384-well clear bottom sterile plates coated with poly-D-lysine. All reagents were from GIBCO-Invitrogen Corp. The seeded plates are incubated overnight at 37° C. and 5% CO2. Ala-6,12 human orexin-A as the agonist is prepared as a 1 mM stock solution in 1% bovine serum albumin (BSA) and diluted in assay buffer (HBSS containing 20 mM HEPES, 0.1% BSA and 2.5 mM probenecid, pH7.4) for use in the assay at a final concentration of 70 pM. Test compounds are prepared as 10 mM stock solution in DMSO, then diluted in 384-well plates, first in DMSO, then assay buffer. On the day of the assay, cells are washed 3 times with 100 μl assay buffer and then incubated for 60 min (37° C., 5% CO2) in 60 μl assay buffer containing 1 μM Fluo-4AM ester, 0.02% pluronic acid, and 1% BSA. The dye loading solution is then aspirated and cells are washed 3 times with 100 μl assay buffer. 30 μl of that same buffer is left in each well. Within the Fluorescent Imaging Plate Reader (FLIPR, Molecular Devices), test compounds are added to the plate in a volume of 25 μl, incubated for 5 min and finally 25 μl of agonist is added. Fluorescence is measured for each well at 1 second intervals for 5 minutes and the height of each fluorescence peak is compared to the height of the fluorescence peak induced by […] Ala-6,12 orexin-A with buffer in place of antagonist. For each antagonist, IC50 value (the concentration of compound needed to inhibit 50% of the agonist response) is determined. Alternatively, compound potency can be assessed by a radioligand binding assay (described in Bergman et. al. Bioorg. Med. Chem. Lett. 2008, 18, 1425-1430) in which the inhibition constant (Ki) is determined in membranes prepared from CHO cells expressing either the OX1 or OX2 receptor. The intrinsic orexin receptor antagonist activity of a compound which may be used in the present invention may be determined by these assays. The following tables show representative data for the compounds of the Examples as orexin receptor antagonists as determined by the foregoing assays wherein the hOX2 Ki is a measure of the ability of the test compound to inhibit the action of the human orexin-2 receptor and the hOX1R is a measure of the ability of the test compound to inhibit the action of the rat orexin-1 receptor.

hOX1 (orexin-1 receptor) = target: T2, hOX1 (orexin-1 receptor) (Homo sapiens, UniProt O43613); assay: radioligand binding assay, OX1 receptor (hOX1 Bind hKi); conditions: membranes from CHO cells expressing the OX1 receptor
T2 construct: expressed in transfected cells; host or cells: CHO cells (membranes)
T2 sequence (O43613 1-425): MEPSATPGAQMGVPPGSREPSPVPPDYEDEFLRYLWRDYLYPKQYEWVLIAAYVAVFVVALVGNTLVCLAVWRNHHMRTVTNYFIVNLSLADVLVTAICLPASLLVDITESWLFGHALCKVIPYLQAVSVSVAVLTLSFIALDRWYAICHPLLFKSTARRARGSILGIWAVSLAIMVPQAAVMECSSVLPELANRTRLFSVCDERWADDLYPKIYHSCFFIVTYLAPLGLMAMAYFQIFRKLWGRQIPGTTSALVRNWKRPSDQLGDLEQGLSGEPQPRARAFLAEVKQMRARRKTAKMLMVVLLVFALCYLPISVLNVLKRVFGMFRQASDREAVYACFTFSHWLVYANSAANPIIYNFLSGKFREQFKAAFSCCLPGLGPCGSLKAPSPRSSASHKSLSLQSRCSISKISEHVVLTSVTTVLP

SMILES	Ki (human orexin-2 receptor) [nM]	Ki (hOX1 (orexin-1 receptor)) [nM]
C[C@@H]1CCC(C#Cc2ccccn2)CN1C(=O)c1ccccc1-n1nccn1 (stereo in doubt) [Example 1, [(2R,5R)-2-Methyl-5-(pyridin-2-ylethynyl)piperidin-1-yl][2-(2H-1,2,3-triazol-2-yl)phenyl]methanone]	11	27
Cc1nc(C(=O)N2CCCCC2C#Cc2ccccc2)c(-c2ccccc2)s1 (centres unmarked) [Example 20, (2-Methyl-5-phenyl-1,3-thiazol-4-yl) [2-(phenylethynyl)piperidin-1-yl]methanone]	> 1170	257
Cc1ccc(-n2nccn2)c(C(=O)N2CCCCC2C#Cc2ccc3ccccc3n2)c1 (centres unmarked) [Example 17, 2-[(1-{[5-methyl-2-(2H-1,2,3-triazol-2-yl)phenyl]carbonyl)piperidin-2-yl)ethynyl]quinoline]	> 4460	332
C[C@@H]1CC[C@@H](C#Cc2ccncc2)CN1C(=O)c1ccccc1-n1nccn1 [Example 2, 4-{[(3S,6R)-6-methyl-1-{[2-(2H-1,2,3-triazol-2-yl)phenyl]carbonyl}piperidin-3-yl]ethynyl}pyridine]	41	107
Cc1ccc(-n2nccn2)c(C(=O)N2CCCCC2C#Cc2ccc3ccccc3c2)c1 (centres unmarked) [Example 19, 1-{[5-methyl-2-(2H-1,2,3-triazol-2-yl)phenyl]carbonyl}-2-(naphthalen-2-ylethynyl)piperidine]	2830	> 476
Cc1ccc(-n2nccn2)c(C(=O)N2CCCCC2C#Cc2cnc3ccccc3c2)c1 (centres unmarked) [Example 18, 3-[(1-{[5-methyl-2-(2H-1,2,3-triazol-2-yl)phenyl]carbonyl}piperidin-2-yl)ethynyl]quinoline]	> 4460	> 476
Cc1nc(C(=O)N2CCCCC2C#Cc2ccc(F)cn2)c(-c2ccccc2)s1 (centres unmarked) [Example 22, 5-fluoro-2-({1-[(2-methyl-5-phenyl-1,3-thiazol-4-yl)carbonyl]piperidin-2-yl}ethynyl)pyridine]	> 2300	> 2710
Cc1nc(C(=O)N2CCCCC2C#Cc2ccc3ccccc3n2)c(-c2ccccc2)s1 (centres unmarked) [Example 24, 2-({1-[(2-methyl-5-phenyl-1,3-thiazol-4-yl)carbonyl]piperidin-2-yl}ethynyl)quinoline]	> 754	233
C[C@@H]1CC[C@@H](C#Cc2cnccc2O)CN1C(=O)c1ccccc1-n1nccn1 [Example 5, 3-{[(3S,6R)-6-methyl-1-{[2-(2H-1,2,3-triazol-2-yl)phenyl]carbonyl}piperidin-3-yl]ethynyl}pyridin-4-ol]	7.5	866
C[C@@H]1CC[C@@H](C#Cc2cccnc2)CN1C(=O)c1ccccc1-n1nccn1 [Example 3, 3-{[(3S,6R)-6-methyl-1-{[2-(2H-1,2,3-triazol-2-yl)phenyl]carbonyl}piperidin-3-yl]ethynyl}pyridine]	7	26
Cc1ccc(-n2nccn2)c(C(=O)N2CCCCC2C#Cc2ccc(F)cc2)c1 (centres unmarked) [Example 16, 2-[(4-fluorophenyl)ethynyl]-1-{[5-methyl-2-(2H-1,2,3-triazol-2-yl)phenyl]carbonyl}piperidine]	160	248
C[C@@H]1CC[C@@H](C#Cc2cccc(CO)n2)CN1C(=O)c1ccccc1-n1nccn1 [Example 9, (6-{[(3S,6R)-6-methyl-1-{[2-(2H-1,2,3-triazol-2-yl)phenyl]carbonyl}piperidin-3-yl]ethynyl}pyridin-2-yl)methanol]	5.6	18
C[C@@H]1CC[C@@H](C#Cc2ccc(CO)cn2)CN1C(=O)c1ccccc1-n1nccn1 [Example 8, (6-{[(3S,6R)-6-methyl-1-{[2-(2H-1,2,3-triazol-2-yl)phenyl]carbonyl}piperidin-3-yl]ethynyl}pyridin-3-yl)methanol]	130	211
Cc1nc(C(=O)N2CCCCC2C#Cc2ccc(F)cc2)c(-c2ccccc2)s1 (centres unmarked) [Example 23, 2-[(4-fluorophenyl)ethynyl]-1-[(2-methyl-5-phenyl-1,3-thiazol-4-yl)carbonyl]piperidine]	721	186
C[C@@H]1CC[C@@H](C#Cc2ccc(CO)nc2)CN1C(=O)c1ccccc1-n1nccn1 [Example 7, (5-{[(3S,6R)-6-methyl-1-{[2-(2H-1,2,3-triazol-2-yl)phenyl]carbonyl}piperidin-3-yl]ethynyl}pyridin-2-yl)methanol]	~150	339
C[C@@H]1CC[C@@H](C#Cc2cncc(CO)c2)CN1C(=O)c1ccccc1-n1nccn1 [Example 11, (5-{[(3S,6R)-6-methyl-1-{[2-(2H-1,2,3-triazol-2-yl)phenyl]carbonyl}piperidin-3-yl]ethynyl}pyridin-3-yl)methanol]	32	108
C[C@@H]1CC[C@@H](C#Cc2cc(CO)ccn2)CN1C(=O)c1ccccc1-n1nccn1 [Example 10, (2-{[(3S,6R)-6-methyl-1-{[2-(2H-1,2,3-triazol-2-yl)phenyl]carbonyl}piperidin-3-yl]ethynyl}pyridin-4-yl)methanol]	42	76
C[C@@H]1CC[C@@H](C#Cc2cccnc2O)CN1C(=O)c1ccccc1-n1nccn1 [Example 4, 3-{[(3S,6R)-6-methyl-1-{[2-(2H-1,2,3-triazol-2-yl)phenyl]carbonyl}piperidin-3-yl]ethynyl}pyridin-2-ol]	24	24
Cc1nc(C(=O)N2CCCCC2C#Cc2ccc3ccccc3c2)c(-c2ccccc2)s1 (centres unmarked) [Example 21, 1-[(2-methyl-5-phenyl-1,3-thiazol-4-yl)carbonyl]-2-(naphthalen-2-ylethynyl)piperidine]	> 754	> 1600
Cc1ccc(-n2nccn2)c(C(=O)N2CCCCC2C#Cc2ccccc2)c1 (centres unmarked) [Example 14, [5-Methyl-2-(2H-1,2,3-triazol-2-yl)phenyl][2-(phenylethynyl)piperidin-1-yl]methanone]	441	357
Cc1ccc(-n2nccn2)c(C(=O)N2CCCCC2C#Cc2ccc(F)cn2)c1 (centres unmarked) [Example 15, 5-fluoro-2-[(1-{[5-methyl-2-(2H-1,2,3-triazol-2-yl)phenyl]carbonyl}piperidin-2-yl)ethynyl]pyridine]	1000	> 2540
C[C@@H]1CC[C@@H](C#Cc2ccnc(CO)c2)CN1C(=O)c1ccccc1-n1nccn1 [Example 12, (4-{[(3S,6R)-6-methyl-1-{[2-(2H-1,2,3-triazol-2-yl)phenyl]carbonyl}piperidin-3-yl]ethynyl}pyridin-2-yl)methanol]	25	75
